Target: pyruvate kinase (Geobacillus stearothermophilus)
Assay: pyruvate kinase inhibitors and activators, confirmation, biochemical, Geobacillus stearothermophilus (AID 1687)
Details: purified enzyme, LDH-coupled NADH absorbance 340 nm

| AC50 | SMILES |
| --- | --- |
| 2.2 µM | CCN(CC)CCn1c2ccccc2n2cc(-c3ccc4c(c3)OCO4)nc12 |
| 1 µM | Cn1c2ccccc2n2cc(-c3ccc4c(c3)OCO4)nc12 |
| 1.7 µM | CN(C)CCn1c2ccccc2n2cc(-c3ccc4c(c3)OCO4)nc12 |
| 2 µM | CCn1c2ccccc2n2cc(-c3ccc4c(c3)OCO4)nc12 |

The next lines start with the compound.

| SMILES | AC50 |
| --- | --- |
| C=CCn1c2ccccc2n2cc(-c3ccc4c(c3)OCO4)nc12 | 10.5 µM |
| O=C(CN1c2cccc3cccc(c23)S1(=O)=O)NCc1ccccc1OC(F)F | 7.6 µM |
| CN(C)CCCN(C(=O)c1ccc(Cl)s1)c1nc2cc3c(cc2s1)OCO3 | 8.9 µM |
| NNC(=O)c1ccc(CN2c3cccc4cccc(c34)S2(=O)=O)cc1 | 4.9 µM |
| COc1cccc(CN2c3cccc4cccc(c34)S2(=O)=O)c1 | 5.5 µM |

From PubChem BioAssay AID1687
